According to PubChem BioAssay (NCI):
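Where inhibition never reached the appropriate level, the endpoint shown equals the highest concentration tested. Otherwise, values were interpolated linearly from a five-concentration, 48-hour dose response in 96-well plates. TGI marks complete inhibition of growth.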

Assays:
Assay in all cases: NCI tumour cell line growth inhibition, 48 h
DU-145 prostate = test system: DU-145 prostate
MCF7 breast = test system: MCF7 breast
NCI-H522 lung = test system: NCI-H522 lung
ACHN renal = test system: ACHN renal
LOX IMVI melanoma = test system: LOX IMVI melanoma
HCC-2998 colon = test system: HCC-2998 colon
IGROV1 ovarian = test system: IGROV1 ovarian
MOLT-4 leukemia = test system: MOLT-4 leukemia
KM12 colon = test system: KM12 colon
EKVX NSCLC = test system: EKVX NSCLC
SNB-19 CNS = test system: SNB-19 CNS
MDA-N = test system: MDA-N
SW-620 colon = test system: SW-620 colon
T-47D breast = test system: T-47D breast
OVCAR-5 ovarian = test system: OVCAR-5 ovarian
PC-3 prostate = test system: PC-3 prostate
HOP-92 NSCLC = test system: HOP-92 NSCLC
HT29 colon = test system: HT29 colon
K-562 leukemia = test system: K-562 leukemia
HCT-15 colon = test system: HCT-15 colon
HCT-116 colon = test system: HCT-116 colon
SK-MEL-2 melanoma = test system: SK-MEL-2 melanoma
786-0 renal = test system: 786-0 renal
HL-60(TB) leukemia = test system: HL-60(TB) leukemia
SF-539 CNS = test system: SF-539 CNS
MALME-3M melanoma = test system: MALME-3M melanoma
A498 renal = test system: A498 renal
UO-31 renal = test system: UO-31 renal
BT-549 breast = test system: BT-549 breast
RXF 393 renal = test system: RXF 393 renal
A549 NSCLC = test system: A549 NSCLC
M14 melanoma = test system: M14 melanoma
NCI/ADR-RES ovarian = test system: NCI/ADR-RES ovarian
SR leukemia = test system: SR leukemia
SK-MEL-28 melanoma = test system: SK-MEL-28 melanoma
CAKI-1 renal = test system: CAKI-1 renal
SN12C renal = test system: SN12C renal
HS 578T breast = test system: HS 578T breast
OVCAR-8 ovarian = test system: OVCAR-8 ovarian
OVCAR-4 ovarian = test system: OVCAR-4 ovarian
UACC-62 melanoma = test system: UACC-62 melanoma
COLO 205 colon = test system: COLO 205 colon
NCI-H23 lung = test system: NCI-H23 lung
UACC-257 melanoma = test system: UACC-257 melanoma
CCRF-CEM leukemia = test system: CCRF-CEM leukemia
SK-MEL-5 melanoma = test system: SK-MEL-5 melanoma
SF-268 CNS = test system: SF-268 CNS
RPMI-8226 leukemia = test system: RPMI-8226 leukemia
SNB-75 CNS = test system: SNB-75 CNS
MDA-MB-435 = test system: MDA-MB-435
MDA-MB-231 breast = test system: MDA-MB-231 breast
TK-10 renal = test system: TK-10 renal
SK-OV-3 ovarian = test system: SK-OV-3 ovarian
NCI-H226 lung = test system: NCI-H226 lung
HOP-62 NSCLC = test system: HOP-62 NSCLC
OVCAR-3 ovarian = test system: OVCAR-3 ovarian
SF-295 CNS = test system: SF-295 CNS
NCI-H460 lung = test system: NCI-H460 lung
U251 CNS = test system: U251 CNS

CCCSc1ccc2[nH]c(N3C(=O)/C(=C/c4ccccc4)N=C3c3ccccc3)cc2c1
TGI (DU-145 prostate): > 50 µM
TGI (MCF7 breast): > 50 µM
TGI (NCI-H522 lung): 36 µM
TGI (ACHN renal): > 50 µM
TGI (LOX IMVI melanoma): > 50 µM
TGI (HCC-2998 colon): 44.6 µM
TGI (IGROV1 ovarian): > 50 µM
TGI (MOLT-4 leukemia): > 50 µM
TGI (KM12 colon): > 50 µM
TGI (EKVX NSCLC): > 50 µM
TGI (SNB-19 CNS): > 50 µM
TGI (MDA-N): 20.1 µM
TGI (SW-620 colon): > 50 µM
TGI (T-47D breast): > 50 µM
TGI (OVCAR-5 ovarian): > 50 µM
TGI (PC-3 prostate): > 50 µM
TGI (HOP-92 NSCLC): > 50 µM
TGI (HT29 colon): > 50 µM
TGI (K-562 leukemia): > 50 µM
TGI (HCT-15 colon): > 50 µM
TGI (HCT-116 colon): > 50 µM
TGI (SK-MEL-2 melanoma): 18 µM
TGI (786-0 renal): > 50 µM
TGI (HL-60(TB) leukemia): 30.2 µM
TGI (SF-539 CNS): > 50 µM
TGI (MALME-3M melanoma): > 50 µM
TGI (A498 renal): > 50 µM
TGI (UO-31 renal): > 50 µM
TGI (BT-549 breast): > 50 µM
TGI (RXF 393 renal): > 50 µM
TGI (A549 NSCLC): > 50 µM
TGI (M14 melanoma): > 50 µM
TGI (NCI/ADR-RES ovarian): > 50 µM
TGI (SR leukemia): > 50 µM
TGI (SK-MEL-28 melanoma): > 50 µM
TGI (CAKI-1 renal): > 50 µM
TGI (SN12C renal): > 50 µM
TGI (HS 578T breast): > 50 µM
TGI (OVCAR-8 ovarian): > 50 µM
TGI (OVCAR-4 ovarian): > 50 µM
TGI (UACC-62 melanoma): > 50 µM
TGI (COLO 205 colon): 24.6 µM
TGI (NCI-H23 lung): > 50 µM
TGI (UACC-257 melanoma): > 50 µM
TGI (CCRF-CEM leukemia): > 50 µM
TGI (SK-MEL-5 melanoma): 44.4 µM
TGI (SF-268 CNS): > 50 µM
TGI (RPMI-8226 leukemia): 42.9 µM
TGI (SNB-75 CNS): > 50 µM
TGI (MDA-MB-435): 21.3 µM

C=C(C)[C@H]1C2=CC(C)=C(O2)[C@@H](O[C@@H]2c3oc(cc3C)[C@H](C(=C)C)[C@H]3C=C(CC[C@H]2C(=C)C)C(=O)O3)[C@H](C(=C)C)CCC2=C[C@H]1OC2=O
TGI (DU-145 prostate): > 100 µM
TGI (MCF7 breast): > 100 µM
TGI (NCI-H522 lung): > 100 µM
TGI (MDA-MB-231 breast): > 100 µM
TGI (ACHN renal): > 100 µM
TGI (LOX IMVI melanoma): > 100 µM
TGI (HCC-2998 colon): > 100 µM
TGI (IGROV1 ovarian): > 100 µM
TGI (MOLT-4 leukemia): > 100 µM
TGI (TK-10 renal): > 100 µM
TGI (KM12 colon): > 100 µM
TGI (EKVX NSCLC): > 100 µM
TGI (SNB-19 CNS): > 100 µM
TGI (MDA-N): > 100 µM
TGI (SK-OV-3 ovarian): > 100 µM
TGI (SW-620 colon): > 100 µM
TGI (T-47D breast): > 100 µM
TGI (NCI-H226 lung): > 100 µM
TGI (OVCAR-5 ovarian): > 100 µM
TGI (PC-3 prostate): > 100 µM
TGI (HOP-92 NSCLC): > 100 µM
TGI (HOP-62 NSCLC): > 100 µM
TGI (K-562 leukemia): > 100 µM
TGI (HCT-15 colon): > 100 µM
TGI (HCT-116 colon): > 100 µM
TGI (SK-MEL-2 melanoma): > 100 µM
TGI (786-0 renal): > 100 µM
TGI (HL-60(TB) leukemia): > 100 µM
TGI (MALME-3M melanoma): > 100 µM
TGI (A498 renal): > 100 µM
TGI (OVCAR-3 ovarian): > 100 µM
TGI (UO-31 renal): > 100 µM
TGI (SF-295 CNS): > 100 µM
TGI (BT-549 breast): > 100 µM
TGI (NCI-H460 lung): > 100 µM
TGI (A549 NSCLC): > 100 µM
TGI (M14 melanoma): > 100 µM
TGI (NCI/ADR-RES ovarian): > 100 µM
TGI (SR leukemia): > 100 µM
TGI (SK-MEL-28 melanoma): > 100 µM
TGI (CAKI-1 renal): > 100 µM
TGI (U251 CNS): > 100 µM
TGI (SN12C renal): > 100 µM
TGI (HS 578T breast): > 100 µM
TGI (OVCAR-8 ovarian): > 100 µM
TGI (OVCAR-4 ovarian): > 100 µM
TGI (UACC-62 melanoma): > 100 µM
TGI (COLO 205 colon): > 100 µM
TGI (NCI-H23 lung): > 100 µM
TGI (UACC-257 melanoma): > 100 µM
TGI (CCRF-CEM leukemia): > 100 µM
TGI (SK-MEL-5 melanoma): > 100 µM
TGI (SF-268 CNS): > 100 µM
TGI (RPMI-8226 leukemia): > 100 µM
TGI (SNB-75 CNS): > 100 µM
TGI (MDA-MB-435): > 100 µM
